For one compound, binding constant results are on record in PMC5892710 (Nature chemical biology, 2017).

The target of the assay is T1, Etr1p (Candida tropicalis, UniProt Q8WZM3).
T1 sequence (Q8WZM3 23-386): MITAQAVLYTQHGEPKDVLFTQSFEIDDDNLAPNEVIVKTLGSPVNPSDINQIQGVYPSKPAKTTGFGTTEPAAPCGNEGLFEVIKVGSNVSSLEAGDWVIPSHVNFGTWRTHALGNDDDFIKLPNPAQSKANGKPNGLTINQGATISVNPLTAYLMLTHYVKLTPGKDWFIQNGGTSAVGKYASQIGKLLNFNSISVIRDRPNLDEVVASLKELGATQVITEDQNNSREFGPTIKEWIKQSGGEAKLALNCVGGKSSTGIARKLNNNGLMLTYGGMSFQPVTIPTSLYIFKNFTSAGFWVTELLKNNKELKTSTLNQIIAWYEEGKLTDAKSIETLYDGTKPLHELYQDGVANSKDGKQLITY
As to the kind of experiment: isothermal titration calorimetry. The class given is binding. To be noted: 150 mM NaCl, 20 mM Tris-HCl pH 7.9; association constant. On the technique in general: In ITC the heat of successive injections is recorded.

For `NC(=O)C1=CN([C@@H]2O[C@H](COP(=O)(O)OP(=O)(O)OC[C@H]3O[C@@H](n4cnc5c(N)ncnc54)[C@H](OP(=O)(O)O)[C@@H]3O)[C@@H](O)[C@H]2O)C=CC1` [NADPH], the binding constant is given as 3.8 ± 1.0 ·10^5.
